# Measurements taken from the NIST ThermoML archive (doi:10.1016/j.jct.2012.06.028).
# ± gives the expanded uncertainty stated by the source.
# Legend:
# [1] = 298.15 K; 101.33 kPa; Liquid; Vibrating tube method
# [2] = refractive index (Na D-line) (dimensionless); settings: 298.15 K; 101.33 kPa; Liquid; Standard Abbe refractometry
Compound,mass density [1],refractive index [2]
CCO [ethanol],785.44 ± 0.13 kg/m3,1.35936 ± 0.00068
CCn1cc[n+](C)c1.O=S(=O)([N-]S(=O)(=O)C(F)(F)F)C(F)(F)F,1518.74 ± 0.7 kg/m3,1.42307 ± 0.0007
CCCC[n+]1ccn(C)c1.O=S(=O)([N-]S(=O)(=O)C(F)(F)F)C(F)(F)F,1436.1 ± 0.62 kg/m3,1.42672 ± 0.0007
CCCCCC [hexane],655.2 ± 0.26 kg/m3,1.37241 ± 0.0007
CCCC[n+]1cccc(C)c1.O=S(=O)([O-])C(F)(F)F [1-butyl-3-methylpyridinium trifluoromethanesulfonate],1279.77 ± 0.47 kg/m3,1.46138 ± 0.0007
CCCC[n+]1cccc(C)c1.O=S(=O)([N-]S(=O)(=O)C(F)(F)F)C(F)(F)F,1414.76 ± 0.6 kg/m3,1.44595 ± 0.0007
